# Entries after “also recorded” stand apart in the source; their conditions may differ.
# Columns and labels:
# ApcMin/+ mice = test: ApcMin/+ colon cancer mouse model; assay type: in vivo
# Procedure: The farnesoid X receptor (FXR) is a bile acid activated nuclear receptor widely expressed through the body. The ability of the intestinal-specific FXR ligand fexaramine to inhibit the progression of colon cancer in mice with a heterozygote mutation for the Apc gene (ApcMin/+ mice on a C57B6 background obtained from Jackson Laboratories) was determined.
# 5 week old ApcMin/+ mice (13-15 males per group receiving a standard diet, a model for colorectal and intestinal cancer) were treated with vehicle (corn oil) or fexaramine (FEX, 100 mg/kg in corn oil) by oral gavage, three times a week for 23 weeks. Mice body weight and food-intake were measured daily. At the end of the treatment regimen, surviving animals were sacrificed by cervical dislocation and the entire intestinal tract was immediately removed and washed with cold phosphate-buffered saline.
# At the completion of the treatment, the colons were removed, flushed with PBS, fixed as “Swiss-rolls” in 4% paraformaldehyde at 4° C. overnight, and paraffin-embedded. Sections (5 μm) were cut stepwise (200 μm) through the complete block and stained with H&E. Tumor counts were performed blinded by a trained pathologist. To determine proliferation rates, mice were injected i.p. with 100 mg/kg of BrdU 2.5 hours prior to sacrifice and paraffin sections stained using a BrdU-in situ detection kit. The extent of apoptosis was determined by TUNEL assay using the ApoAlert DNA fragmentation assay kit. BrdU- and TUNEL-positive cells were counted by an investigator blinded to the genotype. For immunohistochemistry, antigen retrieval was performed (Vector Lab H3300) and then RTU Vectastain Universal Elite ABC Kit and NovaRED or VIP substrate (all from Vector Lab) were used, following the manufacturer's instructions.
# Statistical analysis were performed in collaboration with the Cancer Prevention-Biostatistics department at the University of California at San Diego Cancer Center. This is part of an ongoing collaboration and has previously been applied to the APC^Min model of colorectal cancer as well as to several other cancer models including prostate and breast cancer. The volume of polyps was calculated considering them as hemispheres (½×[…] π r^3). All other evaluations were performed in the distal tract of the small intestine because ApcMin/+ mice develop the majority of tumors in the small intestine.
# human L cells = test: oxygen consumption rate of intestinal L cells (Seahorse analyzer); assay type: cell-based; conditions: fexaramine 1 μM for 24 hours
# Procedure: FIG. 41 is a graph showing the effects of modulating FXR activity on the oxidative metabolism of intestinal L cells. L cells were treated with the FXR agonist fexaramine, the FXR antagonist Guggulsterone, or a combination of both, prior to measurement of their oxygen consumption rate (OCR) in a Seahorse analyzer.
# To examine the effects of FXR in the secretion of GLP-1, the metabolic changes induced in human L cells was measured by treatment with the FXR agonist, fexaramine and an FXR antagonist guggulsterone. Treatment of L cells with fexaramine (1 μM for 24 hours) lead to an increase in the oxygen consumption rate (OCR), consistent with increased mitochondrial activity and consequently, an increased energetic state (FIG. 41). The reverse effect was seen after treatment with the FXR antagonist, guggulsterone, with lower OCR after drug treatment.
# FXR-null mice = test: chronic PO fexaramine in HFD fed FXR-null mice; assay type: in vivo; conditions: 100 mg/kg 5 week with HFD
# Procedure: Data represent the mean±SD. Statistical analysis was performed with the Student's t test. *p<0.05, **p<0.01.
# Therefore, glucose tolerance tests (GTTs) and insulin tolerance tests (ITTs) were performed to determine if glucose homeostasis was improved in fexaramine-treated DIO mice.
# chow-fed mice = test: chronic PO fexaramine in normal chow-fed mice; assay type: in vivo
# Procedure: FIGS. 3A-3D are line graphs and a bar graph showing the effects of fexaramine administration in normal chow-fed mice. The mice were treated with vehicle or fexaramine (100 mg/kg) via PO for 5 weeks. Data represent the mean±STD. Statistical analysis as performed with the Student's t test (*p<0.05, **p<0.01).
# To investigate the physiological effects of intestinal FXR activation by fexaramine, mice were subjected to chronic fexaramine (100 mg/kg Fex) PO treatment for 5 weeks.
# human TGR5 = target: T1, human TGR5 (Homo sapiens, UniProt Q8TDU6); test: TGR5 activation, cAMP-response element luciferase in HEK293 cells; assay type: cell-based; conditions: 24 hours after transfection
# T1 construct: expressed in transfected cells; host or cells: HEK293 cells
# T1 sequence (Q8TDU6 1-330): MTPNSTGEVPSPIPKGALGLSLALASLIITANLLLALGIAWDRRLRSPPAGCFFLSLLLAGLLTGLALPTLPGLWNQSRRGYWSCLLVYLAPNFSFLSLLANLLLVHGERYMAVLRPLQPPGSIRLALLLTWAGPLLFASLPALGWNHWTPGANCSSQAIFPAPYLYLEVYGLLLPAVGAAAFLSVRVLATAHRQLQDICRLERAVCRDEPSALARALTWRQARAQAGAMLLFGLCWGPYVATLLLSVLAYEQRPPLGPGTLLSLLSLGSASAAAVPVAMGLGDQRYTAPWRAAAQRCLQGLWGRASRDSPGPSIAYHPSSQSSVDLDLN
# Procedure: HEK293 cells were transfected with expression vectors for cAMP-response element luciferase, β-galactosidase and human TGR5. 24 hours after transfection, cells were treated with fexaramine or INT-777 (a TGR5 agonist).
# [1] = system: C57BL/6J mice with intragastric ethanol feeding; test: alcoholic liver disease, Tsukamoto-French mouse model; assay type: in vivo; conditions: ethanol feeding 3 weeks; 100 mg/kg/day oral gavage
# Procedure: FIGS. 44A-44C are a (A) digital image of histology images of the liver and (B) and (C) bar graphs showing that administration of fexaramine can protect the liver from alcoholic liver disease, for example by decreasing fat in the liver, liver enzyme ALT and triglycerides (TG). C57BL/6J mice, fed an isocaloric diet or ethanol through continuous intragastric feeding for 3 weeks, were co-administered Fexaramine (100 mg/kg/day oral gavage) or vehicle. (A) Histological liver sections from ethanol fed mice after vehicle or fexaramine treatment. (B) Bar graph of serum alanine aminotransferase (ALT) levels in vehicle and fexaramine treated mice after 3 weeks of an ethanol diet (C) Liver triglyceride levels in vehicle and fexaramine treated mice after 3 weeks of an ethanol or isocaloric (control) diet.
# The Tsukamoto-French mouse model, which involves continuous intragastric feeding of isocaloric diet or ethanol for 3 weeks, was used. C57BL/6J mice were co-administered vehicle or fexaramine by oral gavage (100 mg/kg/day). Mice were sacrificed after treatment and conjugated and unconjugated bile acid levels measured in serum and liver by liquid chromatography/mass spectrometry.
smiles,measurement,setting,value
"COC(=O)/C=C/c1cccc(N(Cc2ccc(-c3ccc(N(C)C)cc3)cc2)C(=O)C2CCCCC2)c1 [Fexaramine, fexaramine]",colon cancer-induced cachexia (weight loss),ApcMin/+ mice; 100 mg/kg oral gavage three times a week,resistant to colon cancer-induced cachexia
same,serum total cholesterol and triglyceride levels,ApcMin/+ mice; after 23 weeks,reduces circulating triglycerides; also recorded: reduced
same,"tumor size in duodenum, jejunum, ileum and throughout the intestine",ApcMin/+ mice; after 23 weeks,dramatic reduction in tumor size
same,tumors in colon sections,ApcMin/+ mice; after 23 weeks,No tumors were observed
same,reduction in total tumor burden versus vehicle,"ApcMin/+ mice; after 23 weeks, p 0.04",20%
same,reduction in tumor burden in the ileum,"ApcMin/+ mice; after 23 weeks, p 0.08",25%
same,reduction in tumor burden in the jejunum,"ApcMin/+ mice; after 23 weeks, p 0.08",11.75%
same,tumor burden in the duodenum,"ApcMin/+ mice; after 23 weeks, p 0.73",no change in tumor burden
same,survival at 25 weeks,ApcMin/+ mice; vehicle 20%,80%
same,body weight change,ApcMin/+ mice; vehicle-treated mice lose ˜10%,maintain their weight
same,oxygen consumption rate (OCR),human L cells,increase
same,Fex-induced changes in gene expression and metabolic homeostasis,FXR-null mice,abrogated
same,"weight gain, basal metabolic activity and glucose tolerance","chow-fed mice; chow-fed mice, 100 mg/kg PO 5 weeks",indistinguishable from vehicle-treated mice
same,glucose homeostasis,"chow-fed mice; normal chow-fed mice, range of doses",no effects observed
same,activation of TGR5,human TGR5,fails to activate TGR5
same,activation of TGR5,human TGR5; listed as Fex,does not activate
same,hepatic steatosis,[1],decreasing hepatic steatosis
same,serum levels of alanine aminotransferase (ALT),[1],decreased

# Reference: patent US20190084939A1, “ANALOGS OF FEXARAMINE AND METHODS OF MAKING AND USING” (Salk Institute for Biological Studies, priority 2014, published 2019)
